Results as given in ChEMBL document CHEMBL1132180, “Synthesis, pharmacological and biophysical characterization, and membrane-interaction QSAR analysis of cationic amphiphilic model compounds” (J Med Chem, 1999).

Experiments:
[1] = physchem
Description: Dissociation constant (pKa)

[2] = species on record: Cavia porcellus
Description: Elevation of the threshold alternating current to induce arrhythmia in isolated guinea pig heart.

[3] = physchem; details: octanol/water
Description: Partition coefficient (logP) (HPLC)

[4] = Drug induced phase transition temperature with DPPA liposome.; type: functional
[5] = species on record: Bos taurus; test: Concentration at which Ca+ binding to phosphatidylserine monolayers is reduced to 50% of control; type: functional
[6] = species on record: Cavia porcellus; test: Concentration required to elevate the threshold of alternating current to induce arrhythmia in isolated guinea pig heart by 50%; VL = Very low activity; type: functional
[7] = species on record: Cavia porcellus; test: Concentration required to elevate the threshold of alternating current to induce arrhythmia in isolated guinea pig heart by 50%; Vl = Very low activity; type: functional
[8] = species on record: Bos taurus; test: Concentration at which Ca+ binding to phosphatidylserine monolayers from bovine brain is reduced to 50% of control; type: functional
[9] = species on record: Cavia porcellus; test: Concentration required to elevate the threshold of alternating current to induce arrhythmia in isolated guinea pig heart by 50%; Vl = very low activity; type: functional

| Structure (SMILES) | pKa [1] | logP [3] | Log IC50 [5] | Log IC50 [8] | Log AC50 [2] | Tt [4] | Log AC50 [6] | Log AC50 [7] | Log AC50 [9] |
| --- | --- | --- | --- | --- | --- | --- | --- | --- | --- |
| COc1ccc(CCCN(C)C)cc1Cl.Cl | 10.8 | 1.92 |  |  | 4.44 uM |  |  |  |  |
| CN(C)CCCc1cccnc1.Cl | 10.7 | 0.57 | 3.6 uM |  |  |  | Very low activity |  |  |
| CN(C)CCCc1ccc(C(C)(C)C)cc1.Cl | 10 | 2.96 | 5.4 uM |  | 4.52 uM | 297 k |  |  |  |
| CN(C)CCCc1ccc(Br)cc1 | 10.6 | 2.37 |  |  |  |  |  |  |  |
| CN(C)CCCc1ccccc1.Cl | 11 | 1.5 | 3 uM |  | 3.55 uM | 3.8 k |  |  |  |
| C[N+](C)(C)CCCc1ccccc1.[Cl-] |  | 0.44 | 3.4 uM |  |  | 307 k |  | Very low activity |  |
| CCOc1ccc(-c2ccc(CCCN(C)C)cc2)cc1.Cl | 9.82 | 3.3 |  |  | 4.8 uM |  |  |  |  |
| CCCc1ccc(CCCN(C)C)cc1.Cl | 10.5 | 2.89 |  |  | 4.85 uM | 295 k |  |  |  |
| CN(C)CCCc1ccc(O)c(Cl)c1.Cl |  | 0.97 |  |  | 3.82 uM | 294 k |  |  |  |
| COc1ccc(-c2ccc(CCC[N+](C)(C)C)cc2)cc1 |  | 2.17 |  |  |  |  |  | Very low activity |  |
| COc1ccc(-c2ccc(CCCN(C)C)cc2)cc1.Cl | 9.85 | 2.95 | 5.4 uM |  | 4.96 uM | 296 k |  |  |  |
| CCc1ccc(CCCN(C)C)cc1.Cl | 10.6 | 2.45 |  |  | 3.94 uM | 300 k |  |  |  |
| CN(C)CCCc1ccc([N+](=O)[O-])cc1.Cl | 10.7 | 1.5 | 4.15 uM |  |  | 307 k |  |  | Very low activity |

Second part, led by results:

| pKa [1] | logP [3] | Log IC50 [5] | Log IC50 [8] | Structure (SMILES) | Log AC50 [2] | Tt [4] | Log AC50 [6] | Log AC50 [7] | Log AC50 [9] |
| --- | --- | --- | --- | --- | --- | --- | --- | --- | --- |
| 10 | 2.76 | 4.85 uM |  | CN(C)CCC(c1ccccc1)c1ccccc1.Cl | 4.37 uM | 308 k |  |  |  |
|  | 0.35 | 2.72 uM |  | CN(C)CCCc1ccc(O)cc1.Cl | 3.29 uM | 314 k |  |  |  |
| 9.85 | 3.36 |  |  | CN(C)CCC(c1ccccc1)c1ccc(-c2ccccc2)cc1 (centres undefined) |  | 294 k |  |  |  |
| 10.5 | 2.75 |  |  | CC(C)c1ccc(CCCN(C)C)cc1.Cl | 4.22 uM | 299 k |  |  |  |
| 10.8 | 2 |  |  | Cc1ccc(CCCN(C)C)cc1.Cl | 4.02 uM | 303 k |  |  |  |
| 9.96 | 3.45 |  |  | CN(C)CCCc1ccc(-c2ccc(Cl)cc2)cc1.Cl | 5.7 uM |  |  |  |  |
| 10.9 | 0.12 |  |  | CN(C)CCCc1ccc(N)cc1.Cl | 3 uM |  |  |  |  |
| 9.88 | 2.99 | 5.4 uM |  | CN(C)CCCc1ccc(-c2ccccc2)cc1.Cl | 4.8 uM | 285 k |  |  |  |
| 10.3 | 2.62 | 4.35 uM |  | CN(C)CCCc1ccc2ccccc2c1.Cl | 4.52 uM | 297 k |  |  |  |
| 9.32 | 2.1 | 4.4 uM |  | CN(C)CCCc1ccc(-c2ccc(O)cc2)cc1.Cl | 4.43 uM | 349 k |  |  |  |
| 10.6 | 2.21 |  | 3.85 uM | CN(C)CCCc1ccc(Cl)cc1.Cl | 4.31 uM | 302 k |  |  |  |
| 9.93 | 2.59 |  |  | CN(C)CC(Cc1ccccc1)c1ccccc1.Cl (centres undefined) | 4.13 uM | 309 k |  |  |  |
